These results are taken from patent publication US20260159474A1, “Aminoindane Compounds and Compositions and Methods of Their Therapeutic Use” (Solvonis Therapeutics Ireland Holdings Limited, priority 2021, published 2026).

Values joined by “and” are separate entries in the source; they are usually repeats but may differ in a detail not shown here. Identical values can stand only once.

The target of one assay is T1, hSERT (Homo sapiens, UniProt P31645).
T1 construct: expressed in transfected cells; host or cells: CHO (hSERT-CHO)
T1 sequence (P31645 whole entry): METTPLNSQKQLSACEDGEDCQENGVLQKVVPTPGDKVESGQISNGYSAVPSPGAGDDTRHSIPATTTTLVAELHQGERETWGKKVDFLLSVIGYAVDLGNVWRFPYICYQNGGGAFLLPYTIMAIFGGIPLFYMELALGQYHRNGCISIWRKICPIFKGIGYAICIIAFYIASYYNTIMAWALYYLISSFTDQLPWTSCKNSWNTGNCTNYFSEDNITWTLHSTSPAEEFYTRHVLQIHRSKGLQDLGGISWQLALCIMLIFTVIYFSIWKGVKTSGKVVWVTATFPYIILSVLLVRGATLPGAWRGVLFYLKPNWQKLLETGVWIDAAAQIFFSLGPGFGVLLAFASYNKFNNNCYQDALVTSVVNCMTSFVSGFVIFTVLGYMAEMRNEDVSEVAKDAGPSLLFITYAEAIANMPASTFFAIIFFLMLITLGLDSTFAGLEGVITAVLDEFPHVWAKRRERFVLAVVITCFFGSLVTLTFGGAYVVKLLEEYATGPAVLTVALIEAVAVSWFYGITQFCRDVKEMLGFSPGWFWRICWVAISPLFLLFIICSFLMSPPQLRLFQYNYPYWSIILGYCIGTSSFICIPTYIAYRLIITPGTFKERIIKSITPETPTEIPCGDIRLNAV
Briefly: SERT uptake SPA in hSERT-CHO cells. The settings on record: for IC50: [3H]-serotonin uptake, hSERT-CHO cells, read-out: SERT Uptake SPA (pIC50) (converted). It is filed as cell-based.

Assay [1] has as its system DA release in rat synaptosomes. Briefly: Dopamine release assay in rat striatal synaptosomes. The class given is biochemical. As to conditions: % of maximal release with 50 μM MDMA, n=2. The method, then: (§1) Methods-Evaluation of Monoamine Release: The potency of therapeutic compounds for stimulating DA release was measured by an endpoint release filtration assay in a 96-well format using rat synaptosomes, essentially as described by Sandtner et al. (Mol Pharmacol., 2016; 89(1):165-75.) and Baumann et al. (Neuropsychopharmacol, 2013; 38:552-562.) with some variations. One male rat was euthanized, and striatum/cortex regions were dissected over ice. The striatum portions were weighed and put in a glass tube containing ice-cold 0.32 M sucrose (dilution 1:24 w/v) for homogenization, while the frontal cortex tissue was diluted in ice-cold 0.32 M sucrose, 1:20 w/v. Tissues were homogenized and centrifuged for 10 mins at 1000×g. The two supernatants from striatum and cortex (crude synaptosomes) were retained on ice until use.
(§2) Test compounds were then serially diluted 1:4 in neat DMSO as concentration-response curves (CRC) of 11 points. To each well of a 2-mL 96 deep-well plate (Whatman UNIPLATE 96 well) were added: 2 μL of a concentration-response curve (CRC) of test compounds or 2 μL of DMSO (no-release condition) or 2 μL of MDMA 10 mM solution (final 50 μM, for maximal release), followed by 200 μL/well of complete Krebs-phosphate buffer (126 mM NaCl, 2.4 mM KCl, 0.83 mM CaCl2), 0.8 mM MgCl2, 0.5 mM KH2PO4, 0.5 mM Na2SO4, 11.1 mM glucose, 0.05 mM pargyline, 1 mg/mL ascorbic acid, freshly added, pH 7.4), containing 1 μM reserpine to block vesicular uptake of substrate. Desipramine (100 nM) and citalopram (100 nM) were also added to the release assay buffer in order to inhibit NET and SERT uptake, respectively. The final compound dilution, then, was 1:200 in 0.5% DMSO.
3H-Dopamine was added to the tube containing the crude striatal synaptosomes preparation, diluted 1:20 (v/v) in complete Krebs-phosphate buffer, and was incubated at RT and gently mixed for 60 minutes. Then, 200 μL/well of 3H-DA loaded synaptosomes were dispensed to the compound plate (final 400 μL/well), and the release reaction proceeded for an additional 15 minutes at RT. The release was terminated by vacuum filtration and washing three times with 1 mL of saline solution (NaCl 0.9%) at RT. The retained radioactivity was counted in a scintillation counter after the addition of 50 μL/well Microscint-20.
(§3) The raw data (cpm) from residual radioactivity onto the filter were elaborated for the determination of pEC50/EC50 values. Specifically, the compound effect was expressed as the percent of maximal release obtained with 50 μM MDMA (100% release) in comparison to vehicle (0.5% DMSO, 0% release). Both MDMA and D-amphetamine in CRC were used as internal controls in each release experiment. In each plate, for both 0% and 100% of release, the signal window was monitored and Z′ calculations were determined using the raw data of four replicates. 5-HT release was calculated in an identical fashion, except that 5 nM 3H-serotonin was added to crude cortex synaptosomes preparation diluted 1:13 (v/v) in complete Krebs-phosphate buffer containing 1 μM Reserpine, 100 nM GBR12909 and 100 nM nomifensine to block vesicular, DAT, and NET uptake, respectively. Synaptosomes were then loaded with 3H-5HT for 60 minutes at RT. After dispensing loaded synaptosomes onto a compound plate (200 μL/well), the release reaction proceeded for an additional 15 minutes. Stop by filtration, counting, and data elaboration were performed as described for DA release. Compounds were tested in duplicate (n=2).

In another assay the target is T2, human DAT (Homo sapiens, UniProt Q01959).
T2 construct: expressed in transfected cells; host or cells: CHO (hDAT-CHO)
T2 sequence (Q01959 whole entry): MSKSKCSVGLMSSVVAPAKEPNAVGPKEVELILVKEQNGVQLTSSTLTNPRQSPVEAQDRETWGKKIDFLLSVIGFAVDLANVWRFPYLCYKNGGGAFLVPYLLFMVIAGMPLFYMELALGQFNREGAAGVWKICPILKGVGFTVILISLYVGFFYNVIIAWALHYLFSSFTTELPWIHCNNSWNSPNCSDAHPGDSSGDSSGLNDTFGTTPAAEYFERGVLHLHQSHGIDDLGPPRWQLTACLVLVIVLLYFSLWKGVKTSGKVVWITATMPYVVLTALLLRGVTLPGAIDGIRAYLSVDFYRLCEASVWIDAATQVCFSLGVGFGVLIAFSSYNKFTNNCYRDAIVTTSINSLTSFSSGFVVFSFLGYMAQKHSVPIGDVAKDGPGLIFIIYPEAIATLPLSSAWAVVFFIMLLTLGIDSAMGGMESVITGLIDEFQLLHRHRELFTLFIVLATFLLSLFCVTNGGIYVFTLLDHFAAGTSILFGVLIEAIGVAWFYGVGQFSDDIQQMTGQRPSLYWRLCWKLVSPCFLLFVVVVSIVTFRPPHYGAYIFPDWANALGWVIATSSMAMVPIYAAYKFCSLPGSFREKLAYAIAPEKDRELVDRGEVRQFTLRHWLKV
Kind of assay: DAT uptake SPA in hDAT-CHO cells. It is filed as cell-based. The settings on record: [3H]-dopamine uptake, hDAT-CHO cells; read-out: DAT Uptake SPA (pIC50) (converted).

For assay [2], the system named is 5-HT release in rat synaptosomes. Briefly: Serotonin release assay in rat cortex synaptosomes. It is filed as biochemical. The settings on record: for 5-HT Release (pEC50): rat cortex synaptosomes, % of maximal release with 50 μM MDMA, n=2; for SERT/DAT Release Ratio: ratio of 5-HT and DA release potency, rat synaptosomes. Here is the method: as §1, §2, §3
The next assay deals with DAT/SERT. The settings on record: Simmler et al., Br J Pharmacol. 2013; cited from earlier work.

Method for hSERT: (§4) Briefly, on experiment days, hDAT-CHO cells were detached using Versene and added at a density of approximately 300,000 cells/mL to the SPA Mixture, which contains the following components in Assay Buffer (20 mM HEPES, 145 mM NaCl, 5 mM KCl, 2 mM CaCl2), 1 mM MgCl2, 5.5 mM glucose, 0.01% Pluronic F127, pH 7.3): 0.75 mg/mL SPA Imaging beads (RPNQ0001, PerkinElmer), 10 μM pargyline and 80 nM of [3H]-dopamine (NET673, PerkinEImer). The SPA Mixture was added 20 μL/well to 384 well plates containing 0.1 μL/well of test compound in neat DMSO (11 points of 1:5 serial dilution, 0.5% DMSO final) or 0.1 μL of DMSO (total uptake) or 0.1 μL of the standard inhibitor indatraline (at 1 μM final concentration, as nonspecific uptake). Plates were sealed with a Top-seal A and read using a Microbeta counter (PerkinElmer) after 45 minutes of incubation at room temperature. […] The SPA Mixture was added 20 μL/well to 384 well plates containing 0.1 μL/well of test compound in neat DMSO (11 points of 1:5 serial dilution, 0.5% DMSO final), 0.1 μL of DMSO (total uptake), or 0.1 μL of the standard inhibitor indatraline (1 μM, nonspecific uptake). Plates were sealed with a Top-seal A and read using a Microbeta counter (PerkinElmer) after 120 minutes of incubation at room temperature.
For both tests, the raw experimental data (cpm) were elaborated for the determination of pIC50/IC50 values as % inhibition of specific uptake. Concentration-response curves of MDMA, MDDMA, citalopram and GBR-12909 were used as internal standards in all experiments, and the signal window was monitored in each plate performing Z′ calculations, as described in Zhang et al., J Biomol Screen.
Method for human DAT: Methods-Evaluation of Monoamine Uptake/Transporter Inhibition: Inhibitory activity on DAT function was measured using an uptake assay in a recombinant CHO cell line stably expressing human DAT (hDAT-CHO). Potency was measured in terms of pIC50 by testing for inhibition of [3H]-dopamine uptake in hDAT-CHO cells in a multiwell format SPA.
as §4
For both tests, the raw experimental data (cpm) were elaborated for the determination of pIC50/IC50 values as % inhibition of specific uptake.

For the molecule `COC(=O)Cc1ccc2c(c1)CC(N)C2` (centres unmarked) [CMP-406], the IC50 at hSERT is 63.1 µM. Besides, the “SERT/DAT Uptake Ratio” value on hSERT (calculated as 1/SERT IC50:1/DAT IC50) was over 1.6. The “DA Release (pEC50)” value in assay [1] is listed as under 4.0. Moreover, the IC50 at human DAT was over 100 µM. Moreover, in assay [2], the “5-HT Release (pEC50)” value is listed as 4.3 and the “SERT/DAT Release Ratio” value is recorded as over 2.0.

As to `CN[C@@H](C)Cc1ccccc1` [methamphetamine], the DAT/SERT ratio in the assay with DAT/SERT was > 10 and 10.

As to `COC(=O)Cc1cc2c(cc1OC)CC(N)C2` (centres unmarked) [CMP-408], the figures for the IC50 on hSERT and at human DAT were 39.8 µM and 100 µM, respectively. Besides, the “DA Release (pEC50)” value in assay [1] is under 4.0. Also, in assay [2], the “5-HT Release (pEC50)” value worked out at 4.6. Besides, the “SERT/DAT Release Ratio” value in assay [2] amounted to 3.9.

For the molecule `COC(=O)CCc1ccc2c(c1)CC(N)C2` (centres unmarked) [CMP-407], the IC50 on hSERT is 25.1 µM. Besides, the “DA Release (pEC50)” value in assay [1] came out at 4.6. In addition, the IC50 at human DAT was 63.1 µM. Moreover, in assay [2], the “5-HT Release (pEC50)” value is under 4.0 and the “SERT/DAT Release Ratio” value is recorded as under 0.25.
